Where two headings read alike, the source gives them in different places.
Legend:
[1] = test system: crabgrass; assay: Example 1: pot test, foliar treatment, visually observed growth inhibition of crabgrass; format: in vivo
Description: (§1) When the herbicidal activity in a case where two active ingredients are combined, is larger than the simple sum of the respective herbicidal activities of the two active ingredients (the expected activity), it is called a synergistic effect. The activity expected by the combination of two active ingredients can be calculated as follows (Colby S. R., “Weed”, vol. 15, p. 20-22, 1967). E=α+β−(α×β+100) where
(§2) α: growth inhibition rate when treated with x (g/ha) of herbicide X,
(§3) β: growth inhibition rate when treated with y (g/ha) of herbicide Y,
(§4) E: growth inhibition rate expected when treated with x (g/ha) of herbicide X and y (g/ha) of herbicide Y.
(§5) That is, when the actual growth inhibition rate (measured value) is larger than the growth inhibition rate by the above calculation (calculated value), the activity by the combination can be regarded as showing a synergistic effect.
(§6) Upland field soil was put into a 1/1,000,000 hectare pot, and seeds of various plants were sown. When the respective plants reached predetermined leaf stage, herbicidal compositions in predetermined amounts were diluted with water in an amount corresponding to 300 L/ha and applied for foliar treatment by a small sprayer.
(§7) Further, in accordance with the above Colby's formula, the growth inhibition rate (calculated value) was calculated. In Tables, with respect to the compound A, Compound Nos. in Table 1 or 3 are described, and with respect to other herbicidal compounds, common names are described.

[2] = test system: velvetleaf; assay: Example 1: pot test, foliar treatment, visually observed growth inhibition of velvetleaf; format: in vivo, Abutilon theophrasti MEDIC.
Description: as §1, §2, §3, §4, §5, §6, §7

[3] = Digitaria sanguinalis, foliar, 3.0 to 4.3 leaf stage, 21st day after application, 15 g/ha, read-out: Growth inhibition rate (%) of crabgrass, Measured value
[4] = Digitaria sanguinalis, foliar, 3.0 to 4.3 leaf stage, 21st day after application, read-out: Growth inhibition rate (%) of crabgrass, Measured value
[5] = 3.8 to 4.4 leaf stage, 21st day after application, 3.5 g/ha
[6] = 3.5 to 4.3 leaf stage, 21st day after application, 3.5 g/ha
[7] = Digitaria sanguinalis, foliar, read-out: Growth inhibition rate (%) of crabgrass, Measured value
[8] = Abutilon theophrasti, foliar, 2.5 to 3.3 leaf stage, 21st day after application, read-out: Growth inhibition rate (%) of velvetleaf, Measured value
[9] = Abutilon theophrasti, foliar, 3.2 to 4.1 leaf stage, 21st day after application, read-out: Growth inhibition rate (%) of velvetleaf, Measured value

Structure (SMILES): CCOCCN(C(=O)CCl)C(=C(C)C)c1ccccc1 [Pethoxamid]
- Growth inhibition rate (%) of crabgrass, Measured value ([1]; 3.5 to 5.0 leaf stage, 22nd day after application, 100 g/ha): 0%
- Growth inhibition rate (%) of velvetleaf, Measured value ([2]; 3.5 to 4.0 leaf stage, 14th day after application, 200 g/ha): 60%

Structure (SMILES): COc1nc(C)nc(NC(=O)NS(=O)(=O)c2ccccc2CCC(F)(F)F)n1 [Prosulfuron]
- inhibition at 15 g/ha [1, 3]: 0%
- inhibition at 30 g/ha [1, 4]: 0%
- inhibition at 15 g/ha ([1]; Digitaria sanguinalis, foliar, 3.2 to 4.1 leaf stage, 14th day after application, 15 g/ha, read-out: Growth inhibition rate (%) of crabgrass, Measured value): 0%
- inhibition at 30 g/ha ([1]; Digitaria sanguinalis, foliar, 3.2 to 4.1 leaf stage, 14th day after application, read-out: Growth inhibition rate (%) of crabgrass, Measured value): 10%
- inhibition at 15 g/ha ([1]; Digitaria sanguinalis, foliar, 3.2 to 4.1 leaf stage, 21st day after application, 15 g/ha, read-out: Growth inhibition rate (%) of crabgrass, Measured value): 0%
- inhibition at 5 g/ha ([1]; Digitaria sanguinalis, foliar, 3.2 to 4.3 leaf stage, 14th day after application, 5 g/ha, read-out: Growth inhibition rate (%) of crabgrass, Measured value): 0%
- inhibition at 10 g/ha ([1]; Digitaria sanguinalis, foliar, 3.2 to 4.3 leaf stage, 14th day after application, 10 g/ha, read-out: Growth inhibition rate (%) of crabgrass, Measured value): 0%
- inhibition at 30 g/ha ([2]; Abutilon theophrasti, foliar, 3.0 to 4.0 leaf stage, 21st day after application, 30 g/ha, read-out: Growth inhibition rate (%) of velvetleaf, Measured value): 95%

Structure (SMILES): CCSC(=O)Oc1c(C(=O)c2ccc(S(C)(=O)=O)c(OCCOC)c2C)cnn1C [No. 55, 5-(ethylthio)carbonyloxy-1-methylpyrazol-4-yl 3-(2-methoxyethoxy)-2-methyl-4-(methylsulfonyl)phenyl ketone]
- Growth inhibition rate (%) of crabgrass, Measured value ([1]; 4.0 to 4.5 leaf stage, 21st day after application, 15 g/ha): 85%
- inhibition at 7 g/ha [1, 4]: 83%
- inhibition at 15 g/ha [1, 3]: 95%
- inhibition at 7 g/ha ([1]; Digitaria sanguinalis, foliar, 3.2 to 4.2 leaf stage, 21st day after application, read-out: Growth inhibition rate (%) of crabgrass, Measured value): 80%
- inhibition at 15 g/ha ([1]; Digitaria sanguinalis, foliar, 3.2 to 4.2 leaf stage, 21st day after application, 15 g/ha, read-out: Growth inhibition rate (%) of crabgrass, Measured value): 98%
- inhibition at 7 g/ha ([1]; Digitaria sanguinalis, foliar, 3.5 to 4.0 leaf stage, 21st day after application, read-out: Growth inhibition rate (%) of crabgrass, Measured value): 95%
- inhibition at 15 g/ha ([1]; Digitaria sanguinalis, foliar, 4.0 to 4.5 leaf stage, 21st day after application, 15 g/ha, read-out: Growth inhibition rate (%) of crabgrass, Measured value): 73%
- Growth inhibition rate (%) of velvetleaf, Measured value ([2]; 3.0 to 3.5 leaf stage, 21st day after application, 15 g/ha): 89%
- inhibition at 7 g/ha ([2]; Abutilon theophrasti, foliar, 2.0 to 2.5 leaf stage, 21st day after application, read-out: Growth inhibition rate (%) of velvetleaf, Measured value): 65%
- inhibition at 7 g/ha ([2]; Abutilon theophrasti, foliar, 2.0 to 2.8 leaf stage, 21st day after application, read-out: Growth inhibition rate (%) of velvetleaf, Measured value): 70%
- inhibition at 15 g/ha ([2]; Abutilon theophrasti, foliar, 2.0 to 2.8 leaf stage, 21st day after application, 15 g/ha, read-out: Growth inhibition rate (%) of velvetleaf, Measured value): 90%
- inhibition at 15 g/ha ([2]; Abutilon theophrasti, foliar, 3.0 to 3.5 leaf stage, 21st day after application, 15 g/ha, read-out: Growth inhibition rate (%) of velvetleaf, Measured value): 75%

Structure (SMILES): COCc1c(S(C)(=O)=O)ccc(C(=O)c2cnn(C)c2O)c1C [No. 2-191]
- Growth inhibition rate (%) of crabgrass, Measured value [1, 5]: 45%
- Growth inhibition rate (%) of velvetleaf, Measured value [2, 6]: 40%

Structure (SMILES): CCc1cccc(C)c1N(C(=O)CCl)[C@@H](C)COC [S-Metolachlor, S-metolachlor, reference compound]
- Growth inhibition rate (%) of crabgrass, Measured value ([1]; 4.0 to 4.5 leaf stage, 21st day after application, 300 g/ha): 8%
- Growth inhibition rate (%) of crabgrass, Measured value ([1]; 4.0 to 5.0 leaf stage, 21st day after application, 150 g/ha): 0%
- Growth inhibition rate (%) of velvetleaf, Measured value ([2]; 2.4 to 3.2 leaf stage, on the 22nd day after application, foliar, active ingredient amount 150 g/ha): 0%
- Growth inhibition rate (%) of velvetleaf, Measured value ([2]; 2.5 to 3.3 leaf stage, 21st day after application, 150 g/ha): 0%
- Growth inhibition rate (%) of velvetleaf, Measured value ([2]; 2.5 to 3.3 leaf stage, 21st day after application, 300 g/ha): 0%
- Growth inhibition rate (%) of velvetleaf, Measured value ([2]; 3.0 to 3.5 leaf stage, 20th day after application, 150 g/ha): 0%
- Growth inhibition rate (%) of velvetleaf, Measured value ([2]; 3.0 to 3.5 leaf stage, 21st day after application, 150 g/ha): 0%
- Growth inhibition rate (%) of velvetleaf, Measured value ([2]; 3.0 to 3.5 leaf stage, 21st day after application, 300 g/ha): 0%
- Growth inhibition rate (%) of velvetleaf, Measured value ([2]; 3.0 to 3.8 leaf stage, 15th day after application, 15 g/ha): 0%
- Growth inhibition rate (%) of velvetleaf, Measured value ([2]; 3.2 to 5.0 leaf stage, 14th day after application, 150 g/ha): 0%
- Growth inhibition rate (%) of velvetleaf, Measured value ([2]; 3.3 to 4.2 leaf stage, 14th day after application, 150 g/ha): 0%
- Growth inhibition rate (%) of velvetleaf, Measured value ([2]; 3.3 to 4.2 leaf stage, 14th day after application, 300 g/ha): 0%
- Growth inhibition rate (%) of velvetleaf, Measured value ([2]; 3.5 to 4.3 leaf stage, 21st day after application, 150 g/ha): 0%

Structure (SMILES): CCOC(=O)C(Cl)Cc1cc(-n2nc(C)n(C(F)F)c2=O)c(F)cc1Cl (stereo not drawn) [Carfentrazone-ethyl]
- inhibition at 2.5 g/ha [1, 7]: 0%
- inhibition at 5 g/ha [1, 7]: 0%
- inhibition at 5 g/ha ([2]; Abutilon theophrasti, foliar, read-out: Growth inhibition rate (%) of velvetleaf, Measured value, 2.0 to 2.5 leaf stage, 21st day after application): 98%
- inhibition at 2.5 g/ha ([2]; Abutilon theophrasti, foliar, read-out: Growth inhibition rate (%) of velvetleaf, Measured value, 3.2 to 4.3 leaf stage, 21st day after application, 2.5 g/ha): 65%
- inhibition at 5 g/ha ([2]; Abutilon theophrasti, foliar, read-out: Growth inhibition rate (%) of velvetleaf, Measured value, 3.3 to 4.3 leaf stage, 20th day after application): 80%

Structure (SMILES): CCOCc1c(S(C)(=O)=O)ccc(C(=O)c2cnn(C)c2O)c1C [No. 2-41]
- Growth inhibition rate (%) of crabgrass, Measured value ([1]; 3.8 to 5.2 leaf stage, 21st day after application, 3.5 g/ha): 35%
- Growth inhibition rate (%) of velvetleaf, Measured value ([2]; 3.2 to 5.0 leaf stage, 14th day after application, 3.5 g/ha): 70%
- Growth inhibition rate (%) of velvetleaf, Measured value ([2]; 3.2 to 5.0 leaf stage, 21st day after application, 3.5 g/ha): 60%

Structure (SMILES): N#Cc1cc(Br)c(O)c(Br)c1 [Bromoxynil, bromoxynil, reference compound]
- inhibition at 165 g/ha ([1]; Digitaria sanguinalis, foliar, 2.7 to 3.6 leaf stage, 21st day after application, read-out: Growth inhibition rate (%) of crabgrass, Measured value): 0%
- inhibition at 77 g/ha ([1]; Digitaria sanguinalis, foliar, 4.0 to 5.0 leaf stage, 21st day after application, 77 g/ha, read-out: Growth inhibition rate (%) of crabgrass, Measured value): 0%
- inhibition at 165 g/ha ([1]; Digitaria sanguinalis, foliar, 4.0 to 5.0 leaf stage, 21st day after application, read-out: Growth inhibition rate (%) of crabgrass, Measured value): 0%
- inhibition at 62.5 g/ha ([2]; Abutilon theophrasti, foliar, 2.4 to 3.2 leaf stage, on the 22nd day after application, foliar, active ingredient amount 62.5 g/ha, read-out: Growth inhibition rate (%) of velvetleaf, Measured value): 35%
- inhibition at 77 g/ha [2, 8]: 30%
- inhibition at 165 g/ha [2, 8]: 40%
- inhibition at 77 g/ha [2, 9]: 0%
- inhibition at 165 g/ha [2, 9]: 30%
- inhibition at 165 g/ha ([2]; Abutilon theophrasti, foliar, 4.0 to 4.4 leaf stage, 22nd day after application, read-out: Growth inhibition rate (%) of velvetleaf, Measured value): 50%

Structure (SMILES): NCCO.O=C(O)c1nc(Cl)ccc1Cl [Clopyralid-olamine]
- Growth inhibition rate (%) of crabgrass, Measured value ([1]; 3.0 to 4.3 leaf stage, 21st day after application, 100 g/ha): 0%
- Growth inhibition rate (%) of velvetleaf, Measured value ([2]; 3.3 to 4.3 leaf stage, 20th day after application, 150 g/ha): 5%
- Growth inhibition rate (%) of velvetleaf, Measured value ([2]; 3.3 to 4.3 leaf stage, 20th day after application, 300 g/ha): 10%
- Growth inhibition rate (%) of velvetleaf, Measured value ([2]; 3.5 to 4.1 leaf stage, 14th day after application, 150 g/ha): 20%
- Growth inhibition rate (%) of velvetleaf, Measured value ([2]; 3.5 to 4.1 leaf stage, 14th day after application, 300 g/ha): 20%

Structure (SMILES): CC(C)N1C(=O)c2ccccc2NS1(=O)=O [Bentazone-sodium]
- inhibition at 200 g/ha ([1]; Digitaria sanguinalis, foliar, 3.2 to 4.1 leaf stage, 21st day after application, read-out: Growth inhibition rate (%) of crabgrass, Measured value): 0%
- inhibition at 200 g/ha ([1]; Digitaria sanguinalis, foliar, 4.1 to 5.3 leaf stage, 14th day after application, read-out: Growth inhibition rate (%) of crabgrass, Measured value): 0%
- inhibition at 150 g/ha ([2]; Abutilon theophrasti, foliar, 2.0 to 2.5 leaf stage, 21st day after application, 150 g/ha, read-out: Growth inhibition rate (%) of velvetleaf, Measured value): 95%
- inhibition at 100 g/ha ([2]; Abutilon theophrasti, foliar, 3.0 to 4.0 leaf stage, 21st day after application, 100 g/ha, read-out: Growth inhibition rate (%) of velvetleaf, Measured value): 0%
- inhibition at 200 g/ha ([2]; Abutilon theophrasti, foliar, 3.0 to 4.0 leaf stage, 21st day after application, 200 g/ha, read-out: Growth inhibition rate (%) of velvetleaf, Measured value): 20%

Structure (SMILES): COC(=O)c1c(S(C)(=O)=O)ccc(C(=O)c2cnn(C)c2O)c1C [No. 2-1]
- Growth inhibition rate (%) of crabgrass, Measured value [1, 5]: 45%
- Growth inhibition rate (%) of velvetleaf, Measured value [2, 6]: 30%

From patent US8466088B2, “Herbicidal compositions containing benzoylpyrazole compounds” (Ishihara Sangyo Kaisha, Ltd., priority 2007, dated 2013)
